Where two headings read alike, the source gives them in different places.
Columns and labels:
[1] = tested on: HCV Replicon 1B; test: HCV Replicon 1B EC50 (Example Q); assay type: cell-based; conditions: Hepatitis C virus, 72 h, read-out: HCV Replicon 1B EC50 (nM) (per Ex. Q)
Method: Compounds were serially diluted in ten steps of 1:3 dilutions in 384-well plates. All serial dilutions were performed in four replicates per compound within the same 384-well plate. An HCV protease inhibitor ITMN-191 at […] was added as a control of 100% inhibition of HCV replication while puromycin at 10 mM was included as a control of 100% cytotoxicity. To each well of a black polystyrene 384-well plate (Greiner Bio-one, Monroe, NC), 90 μL of cell culture medium (without Geneticin) containing 2000 suspended HCV replicon cells was added with a Biotek μFlow workstation. For compound transfer into cell culture plates, 0.4 μL of compound solution from the compound serial dilution plate was transferred to the cell culture plate on a Biomek FX workstation. The DMSO concentration in the final assay wells was 0.44%. The plates were incubated for 3 days at 37° C. with 5% CO2 and 85% humidity. The HCV replicon assay was a multiplex assay, able to assess both cytotoxicity and antireplicon activity from the same well. The CC50 assay was performed first. The media in the 384-well cell culture plate was aspirated, and the wells were washed four times with 100 μL of PBS each, using a Biotek ELX405 plate washer. A volume of 50 μL of a solution containing 400 nM calcein AM (Anaspec, Fremont, CA) in 1×PBS was added to each well of the plate with a Biotek μFlow workstation. The plate was incubated for 30 min at room temperature before the fluorescence signal (excitation 490 nm, emission 520 nm) was measured with a Perkin-Elmer Envision plate reader. The EC50 assay was performed in the same wells as the CC50 assay. The calcein-PBS solution in the 384-well cell culture plate was aspirated with a Biotek ELX405 plate washer. A volume of 20 μL of Dual-Glo luciferase buffer (Promega, Madison, WI) was added to each well of the plate with a Biotek μFlow Workstation. The plate was incubated for 10 min at room temperature. A volume of 20 μL of a solution containing a 1:100 mixture of Dual-Glo Stop & Glo substrate (Promega, Madison, WI) and Dual-Glo Stop & Glo buffer (Promega, Madison, WI) was added to each well of the plate with a Biotek μFlow Workstation. The plate was then incubated at room temperature for 10 min before the luminescence signal was measured with a Perkin-Elmer Envision Plate Reader.

[2] = tested on: Respiratory syncytial virus recombinant with luciferase (RSV-Luc5) in HEp-2 cells; test: HEp-2 RSV-Luc5 384-well assay (EC50 RSVFLUC Hep2-384, Example R); assay type: cell-based; conditions: human respiratory syncytial virus, HEp-2, 72 h, read-out: RSV Hep-2 FLuc EC50 (nM) (per Ex. R)
Source text: HEp-2 cell line was purchased from ATCC (Manassas, VA Cat #CCL-23) and maintained in Dulbecco's […] (DMEM) (Corning, New York, NY, Cat #15-018CM) supplemented with 10% fetal bovine serum (FBS) (Hyclone, Logan, UT, Cat #SH30071-03) and 1× Penicillin-Streptornycin-L-Glutamine (Corning, New York, NY, Cat #30-009-CI). Cells were passaged 2 times per week to maintain sub-confluent densities and were used for experiments at passage 5-20. Respiratory syncytial virus recombinant with luciferase (RSV-Luc5) direct pelleted virus (≥1×107 TCID50/ml) was purchased from Microbiologics (Saint Cloud, MN). Viral replication was determined in HEp-2 cells in the following manner.
Compounds are prepared in 384-well polypropylene plates (Greiner, Monroe, NC, Cat #784201) with 8 compounds per plate in grouped replicates of 4 at 10 serially diluted concentrations (1:3).
HEp-2 cells were suspended in DMEM (supplemented with 10% FBS and 1×Penicillin-Streptonycin-L-Glutimine) and 60 μL of 4,000 cells per well were seeded into 384-well plates (Greiner, Monroe, NC, Cat #781080) using Biotek MultiFlo dispenser. After overnight incubation at 37° C. and 5% CO2, 0.4 uL of three-fold serial dilutions of compound was added to each well using a Biomek FX pipette station. RSV-Luc5 viruses were diluted in DMEM (supplemented with 10% FBS and 1× Penicillin-Streptonycin-L-Glutainie) at an MOI=0.5. Virus suspension was added to each 384-well compound plate at 20 uL per well using a Biotek MultiFlo dispenser. The assay plates were incubated for 3 days at 37° C. and 5% CO2. At the end of incubation, One-Glo reagent (Promega, Madison, WI, Cat #E6120) was prepared. The assay plate and the reagent were equilibrated to room temperature for 30 minutes. 50 uL per well of medium was removed from assay plate and 40 uL per well of One-Glo reagent was added to each plate by Biomek FX. The plates were sat at room temp for 15 minutes. Viral replication was then assessed by measuring luminescence signal using and Envision plate reader. Remdesivir was used as positive control and DMSO was used as negative control. Values were normalized to the positive and negative controls (as 0% and 100% replication, respectively) and data was fitted using non-linear regression analysis by Gilead's dose response tool. The EC50 value for each compound was then determined as the concentration reducing the viral replication by 50%.

[3] = HCV replicon cells, 3 days, Dual-Glo luciferase

CCCCCCCCCCCCCCCCCCC[C@H](COP(=O)(O)OC[C@@]1(C#N)O[C@@H](c2ccc3c(N)ncnn23)[C@H](O)[C@@H]1O)OCc1ccc(-n2cncn2)c(C#N)c1 [Compound 30, ((2R,3S,4R)-5-(4-aminopyrrolo[2,1-f][1,2,4]triazin-7-yl)-2-cyano-3,4-dihydroxytetrahydrofuran-2-yl)methyl ((R)-2-((3-cyano-4-(1H-1,2,4-triazol-1-yl)benzyl)oxy)henicosyl) hydrogen phosphate]
EC50 [1]: 3990 nM

CCCCCCCCCCCCCCCCCCCC[C@@H](COP(=O)(O)OC[C@@]1(C#N)O[C@@H](c2ccc3c(N)ncnn23)[C@H](O)[C@@H]1O)OCc1cc(F)cc(C#N)c1 [Compound 70, ((2R,3S,4R)-5-(4-aminopyrrolo[2,1-f][1,2,4]triazin-7-yl)-2-cyano-3,4-dihydroxytetrahydrofuran-2-yl)methyl ((S)-2-((3-cyano-5-fluorobenzyl)oxy)docosyl) hydrogen phosphate]
EC50 [1]: 19600 nM

CCCCCCCCCCCCCCC[C@H](COP(=O)(O)OC[C@@]1(C#N)O[C@@H](c2ccc3c(N)ncnn23)[C@H](O)[C@@H]1O)OCc1cc(F)cc(C#N)c1 [Compound 80, ((2R,3S,4R,5S)-5-(4-aminopyrrolo[2,1-f][1,2,4]triazin-7-yl)-2-cyano-3,4-dihydroxytetrahydrofuran-2-yl)methyl ((R)-2-((3-cyano-5-fluorobenzyl)oxy)heptadecyl) hydrogen phosphate]
EC50 [1, 3]: 32400 nM

CCCCCCCCCCCCCCCCCC[C@@H](COP(=O)(O)OC[C@@]1(C#N)O[C@@H](c2ccc3c(N)ncnn23)[C@H](O)[C@@H]1O)OCc1cc(F)cc(C#N)c1 [Compound 37, ((2R,3S,4R)-5-(4-aminopyrrolo[2,1-f][1,2,4]triazin-7-yl)-2-cyano-3,4-dihydroxytetrahydrofuran-2-yl)methyl ((S)-2-((3-cyano-5-fluorobenzyl)oxy)icosyl) hydrogen phosphate]
EC50 [2]: 304 nM
EC50 [1, 3]: 22500 nM

CCCCCCCCCCCCCCCCCCOC[C@H](COP(=O)(O)OC[C@@]1(C#N)O[C@@H](c2ccc3c(N)ncnn23)[C@H](O)[C@@H]1O)OCc1ccc(C#N)c(Cl)c1 [Compound 7, ((2R,3S,4R,5S)-5-(4-aminopyrrolo[2,1-f][1,2,4]triazin-7-yl)-2-cyano-3,4-dihydroxytetrahydrofuran-2-yl)methyl ((R)-2-((3-chloro-4-cyanobenzyl)oxy)-3-(octadecyloxy)propyl) hydrogen phosphate]
EC50 [2]: 84 nM
EC50 [1, 3]: 16700 nM

CCCCCCCCCCCCCCCCC[C@@H](COP(=O)(O)OC[C@@]1(C#N)O[C@@H](c2ccc3c(N)ncnn23)[C@H](O)[C@@H]1O)OCc1cc(F)cc(C#N)c1 [Compound 74, ((2R,3S,4R)-5-(4-aminopyrrolo[2,1-f][1,2,4]triazin-7-yl)-2-cyano-3,4-dihydroxytetrahydrofuran-2-yl)methyl ((S)-2-((3-cyano-5-fluorobenzyl)oxy)nonadecyl) hydrogen phosphate]
EC50 [1]: 26200 nM

CCCCCCCCCCCCCCCCCC[C@H](COP(=O)(O)OC[C@@]1(C#N)O[C@@H](c2ccc3c(N)ncnn23)[C@H](O)[C@@H]1O)OCc1cc(Cl)cc(C#N)c1 [Compound 81, ((2R,3S,4R,5S)-5-(4-aminopyrrolo[2,1-f][1,2,4]triazin-7-yl)-2-cyano-3,4-dihydroxytetrahydrofuran-2-yl)methyl ((R)-2-((3-chloro-5-cyanobenzyl)oxy)icosyl) hydrogen phosphate]
EC50 [1, 3]: 10700 nM

CCCCCCCCCCCCCCCC[C@@H](COP(=O)(O)OC[C@@]1(C#N)O[C@@H](c2ccc3c(N)ncnn23)[C@H](O)[C@@H]1O)OCc1cc(F)cc(C#N)c1 [Compound 79, ((2R,3S,4R,5S)-5-(4-aminopyrrolo[2,1-f][1,2,4]triazin-7-yl)-2-cyano-3,4-dihydroxytetrahydrofuran-2-yl)methyl ((S)-2-((3-cyano-5-fluorobenzyl)oxy)octadecyl) hydrogen phosphate]
EC50 [1, 3]: 24300 nM

CCCCCCCCCCCCCCCC[C@H](COP(=O)(O)OC[C@@]1(C#N)O[C@@H](c2ccc3c(N)ncnn23)[C@H](O)[C@@H]1O)OCc1cc(F)cc(C#N)c1 [Compound 78, ((2R,3S,4R,5S)-5-(4-aminopyrrolo[2,1-f][1,2,4]triazin-7-yl)-2-cyano-3,4-dihydroxytetrahydrofuran-2-yl)methyl ((R)-2-((3-cyano-5-fluorobenzyl)oxy)octadecyl) hydrogen phosphate]
EC50 [1, 3]: 27600 nM

CCCCCCCCCCCCCCCCCCOC[C@@H](COP(=O)(O)OC[C@@]1(C#N)O[C@@H](c2ccc3c(N)ncnn23)[C@H](O)[C@@H]1O)Oc1ccc(C#N)nc1 [Compound 72, ((2R,3S,4R,5S)-5-(4-aminopyrrolo[2,1-f][1,2,4]triazin-7-yl)-2-cyano-3,4-dihydroxytetrahydrofuran-2-yl)methyl ((S)-2-((6-cyanopyridin-3-yl)oxy)-3-(octadecyloxy)propyl) hydrogen phosphate]
EC50 [1]: 465 nM

CCCCCCCCCCCCCCCCCCC[C@H](COP(=O)(O)OC[C@@]1(C#N)O[C@@H](c2ccc3c(N)ncnn23)[C@H](O)[C@@H]1O)OCc1cc(F)cc(C#N)c1 [Compound 25, ((2R,3S,4R,5S)-5-(4-aminopyrrolo[2,1-f][1,2,4]triazin-7-yl)-2-cyano-3,4-dihydroxytetrahydrofuran-2-yl)methyl ((R)-2-((3-cyano-5-fluorobenzyl)oxy)henicosyl) hydrogen phosphate]
EC50 [2]: 291 nM

CCCCCCCCCCCCCCOC[C@H](COP(=O)(O)OC[C@@]1(C#N)O[C@@H](c2ccc3c(N)ncnn23)[C@H](O)[C@@H]1O)OCc1ccc(C#N)cc1F [Compound 75, ((2R,3S,4R,5S)-5-(4-aminopyrrolo[2,1-f][1,2,4]triazin-7-yl)-2-cyano-3,4-dihydroxytetrahydrofuran-2-yl)methyl ((R)-2-((4-cyano-2-fluorobenzyl)oxy)-3-(tetradecyloxy)propyl) hydrogen phosphate]
EC50 [2]: 385 nM

CCCCCCCCCCCCCCCCCCC[C@H](COP(=O)(O)OC[C@@]1(C#N)O[C@@H](c2ccc3c(N)ncnn23)[C@H](O)[C@@H]1O)OCc1cc(Cl)cc(C#N)c1 [Compound 82, ((2R,3S,4R,5S)-5-(4-aminopyrrolo[2,1-f][1,2,4]triazin-7-yl)-2-cyano-3,4-dihydroxytetrahydrofuran-2-yl)methyl ((R)-2-((3-chloro-5-cyanobenzyl)oxy)henicosyl) hydrogen phosphate]
EC50 [1]: 11300 nM

CCCCCCCCCCCCCCCCCCOC[C@H](COP(=O)(O)OC[C@@]1(C#N)O[C@@H](c2ccc3c(N)ncnn23)[C@H](O)[C@@H]1O)OCc1ccc(C#N)nc1 [Compound 19, ((2R,3S,4R,5S)-5-(4-aminopyrrolo[2,1-f][1,2,4]triazin-7-yl)-2-cyano-3,4-dihydroxytetrahydrofuran-2-yl)methyl ((R)-2-((6-cyanopyridin-3-yl)methoxy)-3-(octadecyloxy)propyl) hydrogen phosphate]
EC50 [2]: 48 nM

— patent US20250034182A1, “PHOSPHOLIPID COMPOUNDS AND METHODS OF MAKING AND USING THE SAME” (priority 2021, published 2025)
